Measurements from patent US20260374766A1, “METHODS FOR TREATING CANCER” (Antares Therapeutics, Inc., priority 2022, published 2026).

How the values were obtained:
[1] = molecular target: T1, p53 Y220C mutant protein (amino acid residues 94-293) (Homo sapiens, UniProt P04637, Y220C); test: Thermal Shift Assay (TSA), dTM; type: binding; details: thermal shift; for ΔTm at 10 µM: 10 uM compound, read-out: TSA P53 Y220C dTM (10 uM); for ΔTm at 100 µM: 100 uM compound, read-out: TSA P53 Y220C dTM (100 uM)
T1 construct: p53 Y220C mutant protein (amino acid residues 94-293)
Method in brief: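 Recombinant p53 Y220C core (residues 94-293) at 5 μM was incubated with 10 μM or 100 μM compound for 3 hours at 20 °C in 20 mM HEPES pH7.4, 100 mM NaCl, 0.01% Pluronic F-127, 1% DMSO with 400-fold diluted Sypro Orange. Melting was followed from 30 °C to 50 °C at 0.03 °C/second, and TM came from a Boltzmann two-state fit.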

H1299 p53 Y220C = test: Cell Proliferation Assay (CellTiter-Glo, CTG), H1299 p53 Y220C (NClH1299-inducible p53 Y220C); type: cell-based; details: Homo sapiens, NCI-H1299, 120 h, CellTiter-Glo, H1299 p53 Y220C, 5 days
Method in brief: (§1)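 Tet-One inducible p53 Y220C or R273H constructs were stably introduced into NCI-H1299 by lentiviral transduction; NUGC3 was used as is. Cells (250-500 per well) were exposed to compound for 5 days, then CellTiter-Glo was added for 10 min at room temperature and IC50 was calculated from luminescence.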

H1299 p53 R273H = test: Cell Proliferation Assay (CellTiter-Glo, CTG), H1299 p53 R273H (NClH1299-inducible p53 R273H); type: cell-based; details: Homo sapiens, NCI-H1299, 120 h, CellTiter-Glo, H1299 p53 R273H, 5 days
Method in brief: as §1

p53 Y220C = p53 Y220C (Homo sapiens, UniProt P04637, Y220C); test: Luciferase Reporter Assay (Luc), p53 response element, NClH1299 cells with inducible p53 Y220C; type: cell-based; details: luciferase reporter, NClH1299 inducible p53 Y220C, 6 hour; for Emax: 10 uM tool compound as positive control; for AC50: read-out: Luc P53 Y220C AC50
Method in brief: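 Luminescence readout (One-Glo, 5 min shaking at RT, read at once) after 6 h compound exposure; cells pre-induced 24 h with 0.5 ug/mL doxycycline, 5,000/well.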

NUGC3 p53 Y220C = test: Cell Proliferation Assay (CellTiter-Glo, CTG), NUGC3 p53 Y220C; type: cell-based; details: Homo sapiens, NUGC-3, 120 h, CellTiter-Glo, NUGC3 p53 Y220C, 5 days
Method in brief: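 NClH1299 lines stably transduced with Tet-inducible p53 Y220C or R273H, plus NUGC3, were treated with compound for 5 days at 250-500 cells/well. IC50 derived from CellTiter-Glo luminescent signal after 10 min room-temperature incubation.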

[2] = molecular target: T1, p53 Y220C mutant protein (amino acid residues 94-293); test: Surface Plasmon Resonance (SPR) assay, Kd_kinetic; type: binding; details: SPR, kinetic KD, p53 Y220C; read-out: SPR P53 Y220C KD kinetic
Method in brief: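 Kd values come from fitting sensorgrams to a 1:1 binding model. Sensorgrams were recorded on a Biacore 8K at 16 or 20 °C in pH 7.5 Tris buffer with 100 mM NaCl, 1 mM DTT, detergents and 1% DMSO.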

Compound | ΔTm at 10 µM [1] [°C] | ΔTm at 100 µM [1] [°C] | IC50 (H1299 p53 Y220C) [µM] | IC50 (H1299 p53 R273H) [µM] | Emax (p53 Y220C) [%] | AC50 (p53 Y220C) [µM] | IC50 (NUGC3 p53 Y220C) [µM] | Kd [2] [µM]
COc1cc(C(=O)N(C)C)ccc1NCC#Cc1nc2c(N[C@@H]3CCN(C)C[C@@H]3F)cccn2c1SC(F)(F)F [Example 88, 4-{[3-(8-{[(3S,4R)-3-fluoro-1-methylpiperidin-4-yl]amino}-3-[(trifluoromethyl)sulfanyl]imidazo[1,2-a]pyridin-2-yl)prop-2-yn-1-yl]amino}-3-methoxy-N, N-dimethylbenzamide] | ≥ 10 | ≥ 10 | < 0.75 | 8 to 10 | 80 to 90 | < 0.75 | < 0.75 | < 0.01
COc1cc(C(=O)NC(C)C)ccc1NCC#Cc1nc2c(N[C@@H]3CCN(C)C[C@@H]3F)cccn2c1SC(F)(F)F [Example 89, 4-{[3-(8-{[(3S,4R)-3-fluoro-1-methylpiperidin-4-yl]amino}-3-[(trifluoromethyl)sulfanyl]imidazo[1,2-a]pyridin-2-yl)prop-2-yn-1-yl]amino}-N-isopropyl-3-methoxybenzamide] |  | ≥ 10 | < 0.75 | 8 to 10 | 80 to 90 | < 0.75 | < 0.75 | < 0.01
CNC(=O)c1ccc(NCC#Cc2nc3c(N[C@@H]4CCN(C)C[C@@H]4F)cccn3c2CC(F)(F)F)c(OC)n1 [Example 92, 5-{[3-(8-{[(3S,4R)-3-fluoro-1-methylpiperidin-4-yl]amino}-3-(2,2,2-trifluoroethyl)imidazo[1,2-a]pyridin-2-yl)prop-2-yn-1-yl]amino}-6-methoxy-N-methylpyridine-2-carboxamide] |  | 5 to 10 | < 0.75 | 5 to 8 | 80 to 90 | < 0.75 | < 0.75 | < 0.01
CNC(=O)c1ccc(NCC#Cc2nc3c(N[C@@H]4CCN(C)C[C@@H]4F)cccn3c2SC(F)(F)F)c(OC)n1 [Example 93, 5-{[3-(8-{[(3S,4R)-3-fluoro-1-methylpiperidin-4-yl]amino}-3-[(trifluoromethyl)sulfanyl]imidazo[1,2-a]pyridin-2-yl)prop-2-yn-1-yl]amino}-6-methoxy-N-methylpyridine-2-carboxamide] |  | ≥ 10 | < 0.75 | 5 to 8 | > 90 | < 0.75 | < 0.75 | < 0.01
CNC(=O)c1ccc(NCC#Cc2nc3c(N[C@@H]4CCN(C)C[C@@H]4F)cccn3c2SC(F)(F)F)cn1 [Example 94, 5-{[3-(8-{[(3S,4R)-3-fluoro-1-methylpiperidin-4-yl]amino}-3-[(trifluoromethyl)sulfanyl]imidazo[1,2-a]pyridin-2-yl)prop-2-yn-1-yl]amino}-N-methylpyridine-2-carboxamide] | ≥ 10 | ≥ 10 | < 0.75 | ≥ 10 | > 90 | < 0.75 | < 0.75 | < 0.01
COc1cc2c(cc1NCC#Cc1nc3c(N[C@@H]4CCN(C)C[C@@H]4F)cccn3c1SC(F)(F)F)CNC2=O [Example 96, 5-{[3-(8-{[(3S,4R)-3-fluoro-1-methylpiperidin-4-yl]amino}-3-[(trifluoromethyl)sulfanyl]imidazo[1,2-a]pyridin-2-yl)prop-2-yn-1-yl]amino}-6-methoxy-2,3-dihydroisoindol-1-one] | ≥ 10 | ≥ 10 | < 0.75 | 5 to 8 | 80 to 90 | < 0.75 | < 0.75 | < 0.01
CNC(=O)c1ccc(NCC#Cc2nc3c(N[C@@H]4CCN(C)C[C@@H]4F)cccn3c2C(F)(F)F)c(OC)c1 [Example 97, 4-{[3-(8-{[(3S,4R)-3-fluoro-1-methylpiperidin-4-yl]amino}-3-(trifluoromethyl)imidazo [1,2-a]pyridin-2-yl)prop-2-yn-1-yl]amino}-3-methoxy-N-methylbenzamide] |  | 5 to 10 | > 3 | ≥ 10 | < 70 | > 3 | > 3 | 0.1 to 1
CNC(=O)c1ccc(NCC#Cc2nc3c(N[C@@H]4CCNC[C@@H]4F)cccn3c2SC(F)(F)F)c(OC)c1 [Example 100, 4-{[3-(8-{[(3S,4R)-3-fluoropiperidin-4-yl]amino}-3-[(trifluoromethyl)sulfanyl]imidazo[1,2-a]pyridin-2-yl)prop-2-yn-1-yl]amino}-3-methoxy-N-methylbenzamide] | ≥ 10 | ≥ 10 | < 0.75 | 5 to 8 | 80 to 90 | < 0.75 | < 0.75 | < 0.01
CNC(=O)c1ccc(NCC#Cc2nc3c(N[C@@H]4CCOC[C@@H]4F)cccn3c2SC(F)(F)F)c(OC)c1 [Example 101, 4-{[3-(8-{[(3R,4R)-3-fluorooxan-4-yl]amino}-3-[(trifluoromethyl)sulfanyl]imidazo[1,2-a]pyridin-2-yl)prop-2-yn-1-yl]amino}-3-methoxy-N-methylbenzamide] | 5 to 10 | ≥ 10 | < 0.75 | ≥ 10 | 80 to 90 | < 0.75 | < 0.75 | < 0.01
CNC(=O)c1ccc(NCC#Cc2nc3c(N[C@@H]4CNC[C@@H]4F)cccn3c2SC(F)(F)F)c(OC)c1 [Example 102, 4-{[3-(8-{[(3R,4S)-4-fluoropyrrolidin-3-yl]amino}-3-[(trifluoromethyl)sulfanyl]imidazo[1,2-a]pyridin-2-yl)prop-2-yn-1-yl]amino}-3-methoxy-N-methylbenzamide] | ≥ 10 | ≥ 10 | < 0.75 | ≥ 10 | 70 to 80 | < 0.75 | < 0.75 | < 0.01
CNC(=O)c1ccc(NCC#Cc2nc3c(N[C@@H]4CN(C)C[C@@H]4F)cccn3c2SC(F)(F)F)c(OC)c1 [Example 103, 4-{[3-(8-{[(3R,4S)-4-fluoro-1-methylpyrrolidin-3-yl]amino}-3-[(trifluoromethyl)sulfanyl]imidazo[1,2-a]pyridin-2-yl)prop-2-yn-1-yl]amino}-3-methoxy-N-methylbenzamide] | ≥ 10 | ≥ 10 | < 0.75 | ≥ 10 | 80 to 90 | < 0.75 | < 0.75 | < 0.01
CNC(=O)c1ccc(NCC#Cc2nc3c(N[C@@H]4CCN(C)C[C@@H]4F)cccn3c2SC(F)(F)F)c(OCCOC)c1 [Example 104, 4-{[3-(8-{[(3S,4R)-3-fluoro-1-methylpiperidin-4-yl]amino}-3-[(trifluoromethyl)sulfanyl]imidazo[1,2-a]pyridin-2-yl)prop-2-yn-1-yl]amino}-3-(2-methoxyethoxy)-N-methylbenzamide] | ≥ 10 | ≥ 10 | < 0.75 | 8 to 10 | 80 to 90 | < 0.75 | < 0.75 | < 0.01
